According to patent US20250044246A1, “NUCLEAR MAGNETIC RESONANCE METHODS OF DETERMINING HOMEOSTATIC PERTURBATIONS” (The United States of America, as represented by the …, priority 2021, published 2025):
Values joined by “and” are separate entries in the source; they are usually repeats but may differ in a detail not shown here. Equal values may be shown once. “Also recorded” adds a separate entry of the source.

Key:
[1] = tested on: viable "live" ex vivo neonatal mouse spinal cords; assay: Real-time SG diffusion and SG-DEXSY measurements on viable spinal cords (Example 3); type: cell-based
Procedure: MR measurements were performed on viable “live” ex vivo neonatal mouse spinal cords at 13.79 MHz with a low-field single-sided magnet (PM-10 NMR MOUSE, Magritek) (Eidmann, et al., Journal of Magnetic Resonance, Series A, 122(1): 104-109 (1996)) and custom-made RF probe and solenoid coil (see FIG. 29). Diffusion was encoded on sub-micron length scales and sub-millisecond timescales with spin echoes in the presence of a g=15.3 T/m static gradient (SG) (Williamson, et al., Proceedings of the 28th annual International Society of Magnetic Resonance in Medicine (ISMRM) (2020)). SG diffusion measurements (Williamson, et al., Elife, 8: p. e51101 (2019)) and SG diffusion exchange spectroscopy (DEXY)-based exchange rate and spin-lattice relaxation rate measurements (as in Williamson, et al., Journal of Magnetic Resonance, 317: 106782 (2020)), with b1+b2=4.5 ms/μm^2) were repeatedly acquired (11 minutes per set) to observe real-time changes. During measurements, samples were maintained in a constant circulation of artificial cerebrospinal fluid (ACF) and gas and at 25° C.

[2] = tested on: live ex vivo neonatal mouse spinal cords; assay: Static-gradient spin echo diffusion NMR (ADCy, restricted fraction f) on live spinal cords (Example 1); type: cell-based
Procedure: (§1) All experiments were performed on Swiss Webster wild type (Taconic Biosciences, Rensselaer, NY, USA) mice between postnatal day 1 to 4. The mouse spinal cords were isolated and placed in a dissecting chamber perfused with cold low-calcium high magnesium artificial cerebrospinal fluid (aCSF, concentrations in mM: 128.35 NaCl, 4 KCl, 0.5 CaCl2·2H2O, 6 MgSO4·7H2O, 0.58 NaH2PO4·H2O, 21 NaHCO3, 30 D-glucose) bubbled with 95% O2 and 5% CO2). Live spinal cords were transported in low-calcium, high-magnesium aCSF to the NMR experimental apparatus. Fixed spinal cords were kept overnight in 4% paraformaldehyde at 4° C. and then stored in phosphate buffered saline (PBS) at 4° C., and washed with aCSF three times over the course of two days to remove any residual paraformaldehyde prior to experiments. Experiments on fixed and live spinal cords were performed using normal aCSF (same concentrations as the low-calcium high-magnesium solution except for 1.5 mM CaCl2·2H2O and 1 mM MgSO4·7H2O).
The same experimental conditions were used for live and fixed spinal cords. […]
Diffusion experiments were performed using a standard sequence involving a spin echo (SE) for diffusion encoding followed by a CPMG signal acquisition (Rata, et al., Journal of Magnetic Resonance, 180(2): 229-235 (2006). τ (defined as half the SE echo time) was varied linearly from 0.05 to 3.3 ms over 22 steps with 4 scans per τ. This corresponds to b-values ranging from 0.001 to 400 ms/μm^2 where b=2/3γ^2g^2τ^3 (Carr, et al., Physical Review, 94(3): 630 (954), Hahn, Physical Review, 80(4): 580 (1950)). Points two through four (τ=0.2048 to 0.5143 ms, b=0.096 to 1.5 ms/μm^2) of diffusion data were fit with I(b)=I0 exp(−b ADC) to estimate the Apparent Diffusion Coefficient and I0. For measurements on spinal cords, the term ADCy is used, acknowledging that diffusion may be anisotropic but was measured only in the y direction, perpendicular to the cord. […]
(§2) to estimate the restriction radius r and the restricted fraction f. Each estimate incorporated k measured from the rapid exchange experiment during the same set. […]

[3] = tested on: live ex vivo neonatal mouse spinal cords; assay: Real-time DEXSY NMR water exchange rate and R1 DW on live spinal cords (Example 1); type: cell-based; conditions: 100 μM ouabain
Procedure: as §1
A PM 10 NMR MOUSE single-sided permanent magnet (Eidmann, et al., Journal of Magnetic Resonance, 122: 104-109 (1996)) (Magritek, Aachen Germany) and a Kea 2 spectrometer (Magritek, Wellington, New Zealand) were used to perform NMR experiments at B0=0.3239 T (proton ω0=13.79 MHz) and […]. A test chamber and RF probe were fabricated to maximize SNR and maintain live spinal cord viability.
Sample temperature was controlled by heat exchange with one of two circulating water baths (Accel 250 LC, Thermo Scientific, USA, and WCR-P6 Precision Regulated Bath Circulator, Daihan Scientific, Lennox Laboratory supplies, Ireland). […] Sample temperature was monitored by a fiber optic sensor (PicoM, Opsens Solutions Inc., Quebec, Canada). […]
Experimental protocols involved looping through sets of diffusion experiments and rapid DEXSY experiments to acquire repetitions of each. Noise and RF probe tuning were monitored at the beginning of each loop. […]
as §2

[4] = tested on: ex vivo neonatal mouse spinal cords; assay: Multiexponential analysis of DEXSY exchange time distribution P(τk) (Example 5); type: cell-based; conditions: 100 μM ouabain, 25° C., live tissue
Procedure: The probability distribution functions of the exchange time were measured, P(τk)=P(1/k) by applying multi exponential analysis using numerical inverse Laplace transforms (ILTs) to data in which the effect of exchange has been isolated. Using a low-field, static gradient system, P(τk) data were acquired from ex vivo neonatal mouse spinal cords in three conditions: fixed, live, and live whilst treated with ouabain, a sodium-potassium pump inhibitor.
The static gradient DEXSY (SG-DEXSY) pulse sequence was implemented on a PM-10 NMR MOUSE single-sided magnet at ω0=13.79 MHz, B0=0.3239 T, g=15.3 T/m with a home-built solenoid RF coil and test chamber. 90°/180° RF pulse lengths=2/2 μs, pulse powers=−22/−16 dB, TR=2 s, 8000 echo CPMG train with TE=25 μs, 8 points per echo, and 0.5 μs dwell time.
Live (i.e., viable) and fixed ex vivo neonatal (postnatal day 1-4) mouse spinal cords were studied. Spinal cords were bathed in artificial cerebrospinal fluid at 95% O2/5% CO2 and 25° C. For the ouabain treatment condition, ouabain was added at a saturating concentration of 100 μM.
Data were acquired at bs=4.5 ms/μm^2 over 69 values of tm=0.2-1000 ms. A biexponential fit to the log-ratio of signals was first performed to yield robust estimates of the intercept C0 and limit f∞/C1 (FIGS. 35A-35D). […]

organotypic CNS = conditions: after blocking Na+/K+ pump with ouabain; cited from earlier work
Na+/K+-ATPase = conditions: cited from earlier work
live spinal cords = assay: Osmolarity perturbation with sucrose, diffusion and DEXSY NMR on live spinal cords; type: cell-based, mouse; conditions: +300 mM sucrose, live samples
Procedure: as §1, with “MgSO4·7H2O). […]” for “MgSO4·7H2O).”
as §2

fixed spinal cords = assay: Osmolarity perturbation with sucrose, diffusion and DEXSY NMR on fixed spinal cords; design: species or system mouse
Procedure: as §1
Diffusion experiments were performed using a standard sequence involving a spin echo (SE) for diffusion encoding followed by a CPMG signal acquisition (Rata, et al., Journal of Magnetic Resonance, 180(2): 229-235 (2006). τ (defined as half the SE echo time) was varied linearly from 0.05 to 3.3 ms over 22 steps with 4 scans per τ. This corresponds to b-values ranging from 0.001 to 400 ms/μm^2 where b=2/3γ^2g^2τ^3 (Carr, et al., Physical Review, 94(3): 630 (954), Hahn, Physical Review, 80(4): 580 (1950)). Points two through four (τ=0.2048 to 0.5143 ms, b=0.096 to 1.5 ms/μm^2) of diffusion data were fit with I(b)=I0 exp(−b ADC) to estimate the Apparent Diffusion Coefficient and I0. For measurements on spinal cords, the term ADCy is used, acknowledging that diffusion may be anisotropic but was measured only in the y direction, perpendicular to the cord.
as §2

[5] = normal vs +300 mM sucrose, n=2 fixed samples

Cc1onc(O)c1CC(N)C(=O)O (stereo not drawn) [AMPA, α-amino-3-hydroxy-5-methyl-4-isoxazolepropionic acid]
effect on exchange rate ([1]; 5 μM and 10 μM AMPA, n=5): decreases; also recorded: causes exchange rate to decrease | reversibility of the effect on washout ([1]; AMPA washed out): recovers upon washout; also recorded: reversible | effect of a second dose on exchange rate ([1]; second dose of AMPA): less of an effect

C[C@@H]1O[C@@H](O[C@H]2C[C@@H](O)[C@]3(CO)[C@H]4[C@H](O)C[C@]5(C)[C@@H](C6=CC(=O)OC6)CC[C@]5(O)[C@@H]4CC[C@]3(O)C2)[C@H](O)[C@H](O)[C@H]1O [ouabain]
decrease of apparent diffusion coefficient ([2]; 100 μM ouabain, n=3): 9±1% | increase of restricted water fraction f ([2]; 100 μM ouabain, n=3): 22±6% | ADCy ([2]; ouabain-treated spinal cords, mean±SD, n=3, 25° C.): 0.954±0.045 μm^2/ms | time until ouabain took effect after treatment [3]: roughly 10 minutes | exchange rate k after ouabain addition ([3]; 25° C., n=3, mean (±SD), normal k=140 s^−1): 36 s⁻¹ and 36 ± 11 s⁻¹ | decrease of diffusion weighted spin-lattice relaxation rate R1 DW ([3]; n=3): 8±3% | exchange rate after completely blocking Na+/K+ pump ([1]; 100 μM ouabain): 50 s⁻¹ | mean apparent diffusion coefficient ([1]; 100 μM ouabain): increases | restricted volume ([1]; 100 μM ouabain): increases | spin lattice relaxation rate ([1]; 100 μM ouabain): decreases | time until effect after ouabain hits the sample ([1]; 100 μM ouabain): roughly 10 minutes | timescale from no effect to full effect ([1]; 100 μM ouabain): roughly 2 minutes | decrease in water exchange rate ([1]; 100 μM ouabain, n=3): 67% | increase in relative cell volume ([1]; 100 μM ouabain, n=3): 27% | dose dependence of effect on exchange rate ([1]; 1-10 μM vs 100 μM ouabain): dose-independent effect; also recorded: all-or-none fashion | exchange rate after partially blocking Na+/K+ pump ([1]; doses as low as 1 μM ouabain, after a delay): 50 s⁻¹ | normalized restricted volume ([1]; low (1-10 μM) doses of ouabain): not affected | time until effect after hitting the sample ([1]; low (1-10 μM) doses of ouabain, n=5): > 10 min | faster peak of exchange time distribution P(τk) [4]: reduced | decrease of steady-state transmembrane water exchange rate (organotypic CNS): 50% | reduction of Na+/K+-ATPase activity (Na+/K+-ATPase; 100 μM ouabain): 65% | further increase of the effect on Na+/K+-ATPase activity (Na+/K+-ATPase; doses higher than 100 μM ouabain): 6%

OC[C@H]1O[C@@](CO)(O[C@H]2O[C@H](CO)[C@@H](O)[C@H](O)[C@H]2O)[C@@H](O)[C@@H]1O [sucrose]
change of ADCy (live spinal cords): increases ADCy significantly | exchange rate recovered to, in ouabain-treated state ([1]; 100 mM sucrose added in ouabain-treated state (5 μM ouabain, FIG. 21), from 50 s^−1): 150 s⁻¹ | effect on exchange rate in normal conditions ([1]; 100 mM sucrose, normal aCSF): small effect | change of ADCy (fixed spinal cords; +300 mM sucrose, fixed samples): increases negligibly | change in exchange rate k (fixed spinal cords; [5]): no change | change in restricted fraction (fixed spinal cords; [5]): insignificant
